Patent US20230165276A1, “NOVEL USE OF SUBSTITUTED 2H-CHROMENS AND THEIR DERIVATIVES” (DSM IP ASSETS B.V., priority 2018, published 2023)

Columns and labels:
[1] = Oxipres antioxidant efficacy value (EV) in pet food; conditions: 70° C., 5 bar oxygen, 130 hours, equimolar to BHT, EV relative to BHT (EV=1)
Protocol: (§1) Oxidative stability was assessed using an Oxipres (Mikrolab Aarhus A/S, Hojbjerg, Denmark). The ML OXIPRES® is designed to monitor the oxidation of heterogeneous products. Consumption of oxygen results in a pressure drop which is measured by means of pressure transducers. The samples are heated to accelerate the process and shorten the analysis time (Mikrolab Aarhus 2012).
(§2) Sample weights were 50 g. They were loaded into the Oxipres vessels and placed inside the stainless-steel pressure vessel and sealed. The pressure vessels were purged with pure oxygen and filled to an initial oxygen pressure of 5 bar and maintained at 70° C. during measurement (D. Ying, L. Edin, L. Cheng, L. Sanguansri, M. A. Augustin, LWT-Food Science and Technology 2015, 62, 1105-1111: “Enhanced oxidative stability of extruded product containing polyunsaturated oils.”).
The oxygen pressure was recorded as function of time. After sample load and temperature rise the pressure in the device is increasing within 10 hours. Thereafter it is decreasing. Consequently, the starting pressure is considered to be the pressure after 10 hours. […] The oxygen consumption ‘02’ of the tested sample is calculated as follows: […]
A factor of protection called ‘EV’ (Efficacy Value) was developed to quantify with a relative number (relative to BHT) the antioxidant effect of the tested candidates. EV was calculated as follows: […]

[2] = Oxipres antioxidant efficacy value (EV) in poultry meal; conditions: 70° C., 5 bar oxygen, 130 hours, equimolar to BHT, EV relative to BHT (EV=1)
Protocol: as §1, §2
(§3) The oxygen pressure was recorded as function of time. After sample load and temperature rise the pressure in the device is increasing within 10 hours. Thereafter it is decreasing. Consequently, the starting pressure is considered to be the pressure after 10 hours. The analysis ends after 130 hours at 70° C. The oxygen consumption ‘02’ of the tested sample is calculated as follows: […]
(§4) A factor of protection called ‘EV’ (Efficacy Value) was developed to quantify with a relative number (relative to BHT) the antioxidant effect of the tested candidates. EV was calculated as follows:
(§5) EV, being relative to BHT (3,5-di-tert-butyl-4-hydroxy-toluene) (EV=1), makes it possible to compare the antioxidant compounds in a defined feed application.
(§6) Compounds of formulae (1) to (7) were mixed each into the matrix 1, 2 or 3 (pet food, poultry meal, fish meal) in an equimolar ratio compared to BHT. Batches of 200 g feed were produced in order to handle a minimum of 30 mg of antioxidant. First, a 1% pre-dilution of the antioxidant with the feed material was made. Then this pre-dilution was added to the final batch, mixed, sieved (1.25 mm sieve) and mixed using a turbula® mixer. Thereafter 55 g of the final batch were packed into polyethylene bags and stored at 4° C. till time of Oxipres assay. Spare sample were stored at 4° C. An efficacy value 0.7 has been considered as acceptable, an efficacy value the efficacy value of alpha-tocopherol as good, and an efficacy value the efficacy value of BHT as very good.

[3] = Oxipres antioxidant efficacy value (EV) in fish meal; conditions: 70° C., 5 bar oxygen, 130 hours, equimolar to BHT, EV relative to BHT (EV=1)
Protocol: as §1, §2, §3, §4, §5, §6

Solubility in fish oil = type: physicochemical
Protocol: (§7) Two different levels of compound of formula (1) (0.5 and 2 mg/g) were used in 5 g of natural fish oil (Product Code: FG30TG) and used in the Oxidative Stability Instrument at 80° C. with the air flow rate of 40 psi. The solubility of different amounts and types of antioxidants used in 051 was checked before and after the application. […] Compound of formula (1) was used in the Oxidative Stability instruments under the same conditions used for fish oil evaluations. Also, the synergistic effect of compound of formula (1) with ascorbyl palmitate (AP) was determined using the OSI values. The polymers generated at the end of the experiment were determined by LC.

[4] = Oil Stability Index (Oxidative Stability Instrument) in FG30TG fish oil
Protocol: Compound of formula (1) was evaluated primarily for its oxidative stability by the Oil Stability Index measurements.
as §7

[5] = Polymers generated at the end of the fish oil stabilization experiment (LC); conditions: 2 mg/g in FG30TG oil, without AP
Protocol: as §7
Polymers generated at the end of the stabilization experiment of fish oil with compound of formula (1) and AP are shown in Table 11.
Polymers are combination of complex compounds generated at the end of the oxidation cascade of unsaturated fatty acids and, they indicate the levels of overall oxidation of the matrix. The generation of such polymers in fish oil containing compound of formula (1) could be reduced considerably when AP was added as a synergistic compound (Table 11).

[6] = Storage stability study of fish oil (PV, p-AV, CD); conditions: 2 mg/g in FG30TG
Protocol: Tables 12, 13 and 14 show the PV (peroxide value), p-AV (p-anisidine value) and CD (conjugated dienoic acid in %) of the fish oil samples stabilized with compound of formula (1). For the storage stability study compound of formula (1) was used in fish oil at only 2 mg/g level. […] MNT had the lowest PV values. There was no considerable variation in p-AV and CD (Tables 13-14) during the storage.

[7] = Oil Stability Index in crude algal oil
Protocol: as §7
This algal oil already contained about 1.6 mg/g of MNT.

For `CC1=CC(C)(C)Oc2ccc(O)cc21` [Compound of formula (1), 2,2,4-trimethyl-2H-chromen-6-ol], which “EV in pet food” value [1] is on record?
The value was 0.97.

And the “EV in poultry meal” value [2]?
The value was 1.10.

What about the “EV in Fish meal” value [3] of the same compound?
Its value is 0.94.

What about the “Solubility in fish oil, 80° C.” value (Solubility in fish oil; Amount 0.5 mg/g) of the same compound?
Its value is “Soluble”.

And the “Solubility in fish oil, Room temp.” value (Solubility in fish oil; Amount 0.5 mg/g)?
The value was “Soluble”.

What about the “Solubility in fish oil, 80° C.” value (Solubility in fish oil; Amount 2.0 mg/g) of the same compound?
Its value is “Soluble”.

And the “Solubility in fish oil, Room temp.” value (Solubility in fish oil; Amount 2.0 mg/g)?
The value was “Soluble”.

And the “OSI” value ([4]; Table 7, 0.5 mg/g in FG30TG fish oil, 80° C., air flow 40 psi)?
Its value is 5.95 h.

What about the “OSI” value ([4]; Table 7, 2 mg/g in FG30TG fish oil, 80° C., air flow 40 psi) of the same compound?
Its value is 6.73 h.

What about the “Protection Factor (%)” value ([4]; Table 8, 0.5 mg/g in FG30TG fish oil) of the same compound?
Its value is 25.26%.

What about the “Protection Factor (%)” value ([4]; Table 8, 2 mg/g in FG30TG fish oil) of the same compound?
Its value is 41.58%.

And the “OSI” value ([4]; Table 9, 2 mg/g in FG30TG fish oil, without AP)?
Its value is 5.70 h.

What about the “Protection Factor (%)” value ([4]; Table 10, 2 mg/g in FG30TG fish oil, without AP) of the same compound?
The value was 23.1%.

What about the “Polymers (%)” value [5] of the same compound?
Its value is 34.67%.

What about the “CD (conjugated dienoic acid in %)” value ([6]; 4 days) of the same compound?
Its value is 0.8%.

And the “PV (peroxide value)” value ([6]; 4 days)?
Its value is 2.

And the “p-AV (p-anisidine value)” value ([6]; 4 days)?
The value was 4.4.

What about the “CD (conjugated dienoic acid in %)” value ([6]; 6 days) of the same compound?
The value was 0.8%.

What about the “PV (peroxide value)” value ([6]; 6 days) of the same compound?
The value was 2.6.

And the “p-AV (p-anisidine value)” value ([6]; 6 days)?
The value was 7.2.

And the “CD (conjugated dienoic acid in %)” value ([6]; 8 days)?
The value was 0.9%.

And the “PV (peroxide value)” value ([6]; 8 days)?
Its value is 3.8.

What about the “p-AV (p-anisidine value)” value ([6]; 8 days) of the same compound?
Its value is 6.8.

What about the “CD (conjugated dienoic acid in %)” value ([6]; 11 days) of the same compound?
Its value is 0.9%.

What about the “PV (peroxide value)” value ([6]; 11 days) of the same compound?
The value was 6.8.

And the “p-AV (p-anisidine value)” value ([6]; 11 days)?
Its value is 7.6.

What about the “CD (conjugated dienoic acid in %)” value ([6]; 13 days) of the same compound?
Its value is 0.8%.

And the “PV (peroxide value)” value ([6]; 13 days)?
Its value is 9.8.

And the “p-AV (p-anisidine value)” value ([6]; 13 days)?
The value was 8.1.

And the “CD (conjugated dienoic acid in %)” value ([6]; 15 days)?
The value was 0.8%.

And the “PV (peroxide value)” value ([6]; 17 days)?
Its value is 12.1.

And the “p-AV (p-anisidine value)” value ([6]; 17 days)?
The value was 8.5.

And the “CD (conjugated dienoic acid in %)” value ([6]; Initial)?
Its value is 0.7%.

And the “PV (peroxide value)” value ([6]; Initial)?
Its value is 0.9.

What about the “p-AV (p-anisidine value)” value ([6]; Initial) of the same compound?
Its value is 9.9.

And the “OSI” value ([7]; 0.5 mg/g added to crude algal oil already containing about 1.6 mg/g of MNT)?
The value was 16.60 h.

What about the “OSI” value ([7]; 2 mg/g added to crude algal oil already containing about 1.6 mg/g of MNT) of the same compound?
Its value is 18.55 h.

With `CCOc1ccc2c(c1)C(C)=CC(C)(C)O2` [Compound of formula (5), 6-ethoxy-2,2,4-trimethyl-2H-chromene] as the compound, how does the “EV in Fish meal” value [3] read?
Its value is 0.77.

Which “EV in Fish meal” value [3] does the source give for `CC1=CC(C)(C)Oc2c(C)c(C)c(O)c(C)c21` [Compound of formula (3), 2,2,4,5,7,8-hexamethyl-2H-chromen-6-ol] here?
The value was 0.89.

With `O=c1ccc2cc(O)ccc2o1` [Compound of formula (6), 6-hydroxycoumarin] as the compound, how does the “EV in Fish meal” value [3] read?
Its value is 0.75.

With `CC1(C)C=Cc2cc(O)ccc2O1` [Compound of formula (2), 2,2-dimethyl-2H-chromen-6-ol] as the compound, how does the “EV in poultry meal” value [2] read?
The value was 1.11.

Which “EV in Fish meal” value [3] does the source give for `Cc1c(C)c2c(c(C)c1O)C=CC(C)(C)O2` [Compound of formula (4), 2,2,5,7,8-pentamethyl-2H-chromen-6-ol] here?
Its value is 1.10.

With `Oc1ccc2c(c1)C=CCO2` [Compound of formula (7), 2H-chromen-6-ol] as the compound, how does the “EV in Fish meal” value [3] read?
Its value is 0.72.

For `Cc1c(C)c2c(c(C)c1O)CC[C@@](C)(CCC[C@H](C)CCC[C@H](C)CCCC(C)C)O2` [alpha-tocopherol, reference compound], which “EV in pet food” value [1] is on record?
The value was 0.77.

What about the “EV in poultry meal” value [2] of the same compound?
Its value is 0.74.

And the “EV in Fish meal” value [3]?
The value was 0.88.

Which “EV in poultry meal” value [2] does the source give for `Cc1cc(C(C)(C)C)c(O)c(C(C)(C)C)c1` [BHT, 3,5-di-tert-butyl-4-hydroxy-toluene, reference compound] here?
Its value is 1.

And the “EV in Fish meal” value [3]?
Its value is 1.
